The supplement of paper PMC10307832

Assays:
Assay in all cases: relative viability (nuclei count vs DMSO), 5 days (fraction); higher = more cells survive
[1] = compound: CC1CC(=O)N(C2=CN=C(N=C2N1C3CCCC3)NC4=C(C=C(C=C4)C(=O)NC5CCN(CC5)C)OC)C [NPK76-II-72-1] + O=C(CCCCCCC(=O)Nc1ccccc1)NO [Vorinostat] (partner 1 µM)
Outline: (§1)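 After 5 days of treatment, lung cancer cells in 1536-well plates were fixed and stained in a single step (final 0.05% Triton X-100, 1% formaldehyde, 1 ug/ml Hoechst) and their nuclei counted on 4× images. Treatment had been applied by pin tool the day after seeding as one drug alone or as a fixed anchor-drug dose with five library-drug doses (not always all listed) in √10 steps. Relative viability is the nuclei count of treated wells divided by that of vehicle wells, and values are medians of duplicate plates.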

[2] = compound: CC[C@@H]1C(=O)N(C)c2cnc(Nc3ccc(C(=O)NC4CCN(C)CC4)cc3OC)nc2N1C1CCCC1 [BI-2536] + Cc1nc(Nc2ncc(C(=O)Nc3c(C)cccc3Cl)s2)cc(N2CCN(CCO)CC2)n1 [Dasatinib] (partner 0.075 µM)
Outline: as §1

[3] = compound: CC[C@@H]1C(=O)N(C)c2cnc(Nc3ccc(C(=O)NC4CCN(C)CC4)cc3OC)nc2N1C1CCCC1 [BI-2536] + Nc1ncn([C@H]2C[C@H](O)[C@@H](CO)O2)c(=O)n1 [Decitabine] (partner 2 µM)
Outline: as §1

[4] = compound: CC[C@@H]1C(=O)N(C)c2cnc(Nc3ccc(C(=O)NC4CCN(C)CC4)cc3OC)nc2N1C1CCCC1 [BI-2536] + O=C(CCCCCCC(=O)Nc1ccccc1)NO [Vorinostat] (partner 1 µM)
Outline: as §1

Cell Line | relative viability ([1]; first compound 0.01 µM) | relative viability ([1]; first compound 0.03162 µM) | relative viability ([1]; first compound 0.1 µM) | relative viability ([1]; first compound 0.3162 µM) | relative viability ([1]; first compound 1 µM) | relative viability ([2]; first compound 0.01 µM) | relative viability ([2]; first compound 0.03162 µM) | relative viability ([2]; first compound 0.1 µM) | relative viability ([2]; first compound 0.3162 µM) | relative viability ([2]; first compound 1 µM) | relative viability ([3]; first compound 0.03162 µM) | relative viability ([3]; first compound 0.1 µM) | relative viability ([3]; first compound 0.3162 µM) | relative viability ([3]; first compound 1 µM) | relative viability ([4]; first compound 0.03162 µM) | relative viability ([4]; first compound 0.1 µM) | relative viability ([4]; first compound 0.3162 µM) | relative viability ([4]; first compound 1 µM) | relative viability ([3]; first compound 0.01 µM) | relative viability ([4]; first compound 0.01 µM)
NCI-H2342 | 0.742 | 0.917 | 0.783 | 0.658 | 0.763 | 0.326 | 0.313 | 0.267 | 0.213 | 0.227 | 0.732 | 0.637 | 0.514 | 0.433 | 0.705 | 0.79 | 0.445 | 0.385 | – | –
SK-MES-1 | 1.06 | 1.05 | 1.12 | 1.17 | 1.22 | 0.415 | 0.336 | 0.134 | 0.115 | 0.136 | 0.351 | 0.186 | 0.164 | 0.184 | 0.934 | 0.441 | 0.136 | 0.188 | 0.335 | 1.17
HCC-366 | 0.358 | 0.361 | 0.394 | 0.322 | 0.461 | 0.717 | 0.653 | 0.149 | 0.0225 | 0.0238 | 0.408 | 0.248 | 0.036 | 0.0402 | 0.347 | 0.0476 | 0.0183 | 0.0214 | 0.407 | 0.336
201T | 0.803 | 0.989 | 0.93 | 0.962 | 1.14 | 0.579 | 0.57 | 0.547 | 0.402 | 0.285 | 0.838 | 0.815 | 0.332 | 0.225 | 0.98 | 0.841 | 0.254 | 0.31 | 0.873 | 0.967
HCC-827 | 0.825 | 0.9 | 0.831 | 0.817 | 0.942 | 0.293 | 0.315 | 0.334 | 0.301 | 0.177 | 0.363 | 0.269 | 0.203 | 0.117 | 0.943 | 0.665 | 0.222 | 0.227 | 0.357 | 0.884
NCI-H647 | 0.575 | 0.568 | 0.4 | 0.668 | 0.725 | 0.156 | 0.184 | 0.0428 | 0.0374 | 0.039 | 0.301 | 0.103 | 0.0938 | 0.135 | 0.372 | 0.236 | 0.086 | 0.0837 | 0.391 | 0.526
NCI-H2023 | 0.504 | 0.655 | 0.69 | 0.563 | 0.614 | 0.587 | 0.463 | 0.346 | 0.0877 | 0.0801 | 0.191 | 0.112 | 0.091 | 0.084 | 0.549 | 0.154 | 0.0827 | 0.0741 | 0.186 | 0.684
NCI-H520 | 0.706 | 0.84 | 0.698 | 0.741 | 0.748 | 0.164 | 0.204 | 0.194 | 0.153 | 0.13 | 0.393 | 0.226 | 0.195 | 0.209 | 0.25 | 0.24 | 0.181 | 0.179 | 0.538 | 0.599
RERF-LC-KJ | 0.639 | 0.725 | 0.662 | 0.701 | 0.673 | 0.746 | 0.574 | 0.234 | 0.189 | 0.217 | 0.437 | 0.157 | 0.194 | 0.215 | 0.531 | 0.348 | 0.224 | 0.255 | 0.692 | 0.731
A-427 | 0.824 | 0.856 | 0.877 | 0.855 | 0.883 | 0.579 | 0.752 | 0.44 | 0.12 | 0.118 | 0.539 | 0.469 | 0.204 | 0.185 | 0.859 | 0.296 | 0.19 | 0.165 | 0.555 | 0.871
NCI-H441 | 0.64 | 0.839 | 0.881 | 0.881 | 0.851 | 0.434 | 0.244 | 0.195 | 0.164 | 0.179 | 0.247 | 0.153 | 0.149 | 0.149 | 0.601 | 0.263 | 0.212 | 0.178 | 0.244 | 0.668
NCI-H1792 | – | – | – | – | – | 0.762 | 0.916 | 0.885 | 0.498 | 0.34 | 0.589 | 0.386 | 0.0865 | 0.0535 | – | – | – | – | 0.587 | –
SK-LU-1 | 0.722 | 0.77 | 0.756 | 0.77 | 0.851 | 0.176 | 0.143 | 0.108 | 0.113 | 0.099 | 0.726 | 0.337 | 0.316 | 0.249 | 0.643 | 0.271 | 0.247 | 0.247 | 0.61 | 0.727
PC-3 [JPC-3] | 0.807 | – | 0.799 | 0.848 | 0.905 | 1.02 | 0.925 | 0.879 | 0.266 | 0.188 | 0.752 | 0.757 | 0.362 | 0.408 | 0.677 | 0.416 | 0.306 | 0.291 | 0.775 | 0.857
EMC-BAC-2 | 0.423 | 0.186 | 0.493 | 0.416 | 0.524 | 0.3 | 0.304 | 0.209 | 0.15 | 0.14 | 0.959 | 0.866 | 0.287 | 0.235 | 0.416 | 0.171 | 0.144 | 0.131 | 0.986 | 0.468
LK-2 | 0.451 | 0.263 | 0.36 | 0.165 | 0.327 | 0.268 | 0.313 | 0.215 | 0.147 | 0.137 | 0.254 | 0.134 | 0.0869 | 0.137 | 0.242 | 0.15 | 0.104 | 0.155 | 0.255 | 0.181
